Results taken from article PMC3466778 (Biochemistry, 2012).

Biological target: T1, KcsA (Streptomyces lividans, UniProt P0A334)
T1 sequence (P0A334 1-160): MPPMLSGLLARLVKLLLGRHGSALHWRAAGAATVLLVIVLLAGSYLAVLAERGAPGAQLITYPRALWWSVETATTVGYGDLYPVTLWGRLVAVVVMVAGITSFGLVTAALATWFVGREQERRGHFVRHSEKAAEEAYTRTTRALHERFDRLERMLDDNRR
Test: fluorescence titration
Assay type: binding

- Kd: 470 ± 100 nM
Structure (SMILES): CN(C)c1cccc2c(S(=O)(=O)NCCCCCCCCCCC(=O)O)cccc12 [Dauda]
